Values quoted from earlier work in patent publication US8828877B2, “Etching solution and trench isolation structure-formation process employing the same” (AZ Electronic Materials USA Corp., priority 2009, dated 2014).

Columns and labels:
[1] = for δH: Hansen solubility parameter, strength of hydrogen bond; for Organic solvent δH: as given in Table 2 for the solvent of the etching solution
[2] = in water at 20° C.; "any" = can mix with water in any proportion

SMILES | δH [1] | Saturation solubility [2] | Organic solvent δH [1]
CCOCC [Diethyl ether] | 5.1 | 6.9 wt % | –
CCC(=O)CC [Diethyl ketone] | 4.7 | 5.0 wt % | –
COC(C)COC(C)COC(C)=O (stereo not shown) [Dipropylene glycol monomethyl ether acetate] | 8.0 | 12.0 wt % | –
COCCOC(C)=O [Ethylene glycol monomethyl ether acetate] | 11.6 | any | 10.6
CCOC [Methyl ethyl ether] | 6.2 | ≥ 5.0 wt % | –
C=CCOC(=O)CC(C)=O [Allyl acetoacetate] | 8.6 | 5.0 wt % | –
CCOC(C)=O [Ethyl acetate] | 7.2 | – | –
COC [Dimethyl ether] | 5.7 | 32.8 wt % | –
CCOCC(C)OC(C)=O (stereo not shown) [Propylene glycol monoethyl ether acetate] | 9.0 | ≥ 5.0 wt % | –
CCOCCOC(C)=O [Ethylene glycol monoethyl ether acetate] | 10.6 | 23.0 wt % | –
CC(C)O [isopropyl alcohol, reference compound] | 16.4 | – | 16.4
COCC(C)O (stereo not shown) [Propylene glycol monomethyl ether] | 11.6 | – | 10.5
COCOC [Dimethoxymethane] | 8.6 | 32.3 wt % | –
C=C(C)C(=O)O [Methacrylic acid] | 10.2 | 9.7 wt % | –
CC(C)=O [Acetone] | 7.0 | any | 7.0
CCCCOCCOCCOC(C)=O [Diethyl glycol butyl ether acetate] | 8.2 | 6.5 wt % | –
COC(=O)CC(C)=O [Methyl acetoacetate] | 8.9 | 46.0 wt % | –
COC(C)=O [Methyl acetate] | 7.6 | 25.0 wt % | –
COC(C)COC(C)COC(C)CO (stereo not shown) [Tripropylene glycol monomethyl ether] | 10.4 | any | –
CCOCC(C)O (stereo not shown) [Propylene glycol monoethyl ether] | 10.5 | any | –
CCC=O [Propion aldehyde] | – | 20.0 wt % | –
COCCOC [Ethylene glycol dimethyl ether] | – | any | –
CC(=O)C=O [Methylglyoxal] | – | ≥ 40.0 wt % | –
COCC(C)OC(C)=O (stereo not shown) [Propylene glycol monomethyl ether acetate] | 9.8 | 19.0 wt % | 9.0
CCCCOCCOCCO [Diethyl glycol monobutyl ether] | 10.6 | 6.5 wt % | –
